# Laboratory results published in patent publication US7495018B2, “Substituted 1,3-thiazole compounds, their production and use” (Takeda Pharmaceutical Company Limited, priority 2000, dated 2009).
# Tested on: not given
# Assay: not given
# Conditions: not given
row,Structure (SMILES),melting point
1,"CCc1nc(-c2cccc(C(C)C)c2)c(-c2ccnc(N)c2)s1 [Example Compound 20-10, 4-[2-ethyl-4-[3-(1-methylethyl)phenyl]-1,3-thiazol-5-yl]-2-pyridylamine]",80 to 81 °C
2,"CCc1nc(-c2ccc(F)cc2)c(-c2ccnc(NC(C)=O)c2)s1 [Example 82-2, N-[4-[2-ethyl-4-(4-fluorophenyl)-1,3-thiazol-5-yl]-2-pyridyl]acetamide]",190 to 191 °C
3,"CCc1nc(-c2cccc(C)c2)c(-c2ccnc(NC3CCCCC3)c2)s1 [Example Compound 36-4, N-cyclohexyl-4-[2-ethyl-4-(3-methylphenyl)-1,3-thiazol-5-yl]-2-pyridylamine]",110 to 112 °C
4,"Cc1cc(C)cc(-c2nc(NC(=O)c3cccnc3)sc2-c2cc(C)nc(C)c2)c1 [Example Compound 42-2, N-[4-(3,5-dimethylphenyl)-5-(2,6-dimethyl-4-pyridyl)-1,3-thiazol-2-yl]nicotinamide]",267 to 268 °C
5,"CCc1nc(-c2ccccc2)c(-c2ccnc(NC(C)=O)c2)s1 [Example Compound 82-1, N-[4-(2-ethyl-4-phenyl-1,3-thiazol-5-yl)-2-pyridyl]acetamide]",175 to 176 °C
6,"Cc1cc(C)cc(-c2nc(NC(=O)c3cccnc3)sc2-c2ccnc(C)c2)c1 [Example Compound 42-1, N-[4-(3,5-dimethylphenyl)-5-(2-methyl-4-pyridyl)-1,3-thiazol-2-yl]nicotinamide]",203 to 206 °C
7,"CCC(=O)Nc1cc(-c2sc(CC)nc2-c2ccc(F)c(C)c2)ccn1 [Example 84-4, N-[4-[2-ethyl-4-(4-fluoro-3-methylphenyl)-1,3-thiazol-5-yl]-2-pyridyl]propionamide]",105 to 107 °C
8,"Cc1cccc(-c2nc(CC(F)(F)F)sc2-c2ccnc(N)c2)c1 [Example Compound 18-3, 4-[4-(3-methylphenyl)-2-(2,2,2-trifluoroethyl)-1,3-thiazol-5-yl]-2-pyridylamine]",131 to 132 °C
9,"CCC(=O)Nc1cc(-c2sc(C(C)OC(=O)c3ccccc3)nc2-c2cccc(Cl)c2)ccn1 (stereo not drawn) [Example 102-6, 1-[4-(3-chlorophenyl)-5-(2-propionylamino-4-pyridyl)-1,3-thiazol-2-yl]ethyl benzoate]",124 to 127 °C
10,"Nc1nc(-c2ccc(F)cc2)c(-c2ccnc(NC3CCCCC3)c2)s1 [Example Compound 36-1, [5-(2-cyclohexylamino-4-pyridyl)-4-(4-fluorophenyl)-1,3-thiazol-2-yl]amine]",194 to 195 °C
11,"CCc1nc(-c2cccc(C)c2)c(-c2ccnc(N3CCOCC3)c2)s1 [Example Compound 36-9, 2-ethyl-4-(3-methylphenyl)-5-(2-morpholino-4-pyridyl)-1,3-thiazole]",69 to 71 °C
12,"CC(=O)Nc1cc(-c2sc(C(C)O)nc2-c2cccc(Cl)c2)ccn1 (stereo not drawn) [Example 111-2, N-[4-[4-(3-chlorophenyl)-2-(1-hydroxyethyl)-1,3-thiazol-5-yl]-2-pyridyl]acetamide]",142 to 145 °C
13,"CSc1ccc(-c2nc(-c3cc(C)cc(C)c3)c(-c3cc(C)nc(C)c3)s2)cc1 [Example Compound 16-4, 4-(3,5-dimethylphenyl)-5-(2,6-dimethyl-4-pyridyl)-2-[4-(methylthio)phenyl]-1,3-thiazole]",134 to 136 °C
14,"Cc1cccc(-c2nc(-c3ccc(S(C)(=O)=O)cc3)sc2-c2ccnc(N(C)C3CCCCC3)c2)c1 [Example Compound 37-2, N-cyclohexyl-N-methyl-4-[4-(3-methylphenyl)-2-(4-methylsulfonylphenyl)-1,3-thiazol-5-yl]-2-pyridylamine]",173 to 174 °C
15,"CCc1nc(-c2cccc(C)c2)c(-c2ccnc(NCC3CCCC3)c2)s1 [Example Compound 32, N-(cyclopentylmethyl)-4-[2-ethyl-4-(3-methylphenyl)-1,3-thiazol-5-yl]-2-pyridylamine]",67 to 69 °C
16,"CCC(=O)Nc1cc(-c2sc(C(C)O)nc2-c2cccc(Cl)c2)ccn1 (stereo not drawn) [Example 105, N-[4-[4-(3-chlorophenyl)-2-(1-hydroxyethyl)-1,3-thiazol-5-yl]-2-pyridyl]propionamide]",131 to 132 °C
17,"CCc1nc(-c2cccc(C(C)C)c2)c(-c2ccnc(NC(C)=O)c2)s1 [Example 82-8, N-[4-[2-ethyl-4-[3-(1-methylethyl)phenyl]-1,3thiazol-5-yl]-2-pyridyl]acetamide]",116 to 117 °C
18,"Nc1nc(-c2ccc(F)cc2)c(-c2ccnc(F)c2)s1 [Example Compound 7-3, [4-(4-fluorophenyl)-5-(2-fluoro-4-pyridyl)-1,3-thiazol-2-yl]amine]",243 to 245 °C

# Other lines, results leading:
row,melting point,Structure (SMILES)
1,219 to 220 °C,"Cc1cc(C)cc(-c2nc(N)sc2-c2ccnc(C)c2)c1 [Example Compound 7-5, [4-(3,5-dimethylphenyl)-5-(2-methyl-4-pyridyl)-1,3-thiazol-2-yl]amine]"
2,153 to 154 °C,"Cc1cccc(-c2nc(-c3ccc(S(C)(=O)=O)cc3)sc2-c2ccnc(N3CCN(C)CC3)c2)c1 [Example Compound 37-5, 4-(3-methylphenyl)-5-[2-(4-methyl-1-piperazinyl)-4-pyridyl]-2-(4-methylsulfonylphenyl)-1,3-thiazole]"
3,83 to 84 °C,"Cc1cccc(-c2nc(-c3ccccc3Cl)sc2-c2ccnc(C)c2)c1 [Example Compound 14-1, 2-(2-chlorophenyl)-4-(3-methylphenyl)-5-(2-methyl-4-pyridyl)-1,3-thiazole]"
4,89 to 91 °C,"Cc1cccc(-c2nc(-c3ccc(F)cc3)sc2-c2ccnc(C)c2)c1 [Example Compound 14-4, 2-(4-fluorophenyl)-4-(3-methylphenyl)-5-(2-methyl-4-pyridyl)-1,3-thiazole]"
5,149 to 151 °C,Cc1cccc(-c2nc(NC(=O)NCCCl)sc2-c2ccnc(C)c2)c1
6,90 to 91 °C,"Cc1cccc(-c2nc(-c3ccc(F)cc3F)sc2-c2ccnc(C)c2)c1 [Example Compound 14-5, 2-(2,4-difluorophenyl)-4-(3-methylphenyl)-5-(2-methyl-4-pyridyl)-1,3-thiazole]"
7,82 to 84 °C,"Cc1cccc(-c2nc(Cc3ccccc3)sc2-c2ccnc(C)c2)c1 [Example Compound 14-7, 4-(3-methylphenyl)-5-(2-methyl-4-pyridyl)-2-(phenylmethyl)-1,3-thiazole]"
8,156 to 158 °C,"Cc1cccc(-c2nc(NC(=O)OCCCl)sc2-c2ccnc(C)c2)c1 [Example Compound 62, 2-chloroethyl[4-(3-methylphenyl)-5-(2-methyl-4-pyridyl)-1,3-thiazol-2-yl]carbamate]"
9,205 to 206 °C,"Cc1cccc(-c2nc(N)sc2-c2ccnc(C)c2)c1 [Example Compound 7-4, [4-(3-methylphenyl)-5-(2-methyl-4-pyridyl)-1,3-thiazol-2-yl]amine]"
10,156 to 157 °C,"Cc1cccc(-c2nc(C(=O)O)sc2-c2ccnc(N)c2)c1 [Example Compound 25-1, 5-(2-amino-4-pyridyl)-4-(3-methylphenyl)-1,3-thiazole-2-carboxylic acid]"
11,175 to 178 °C,"Cc1cccc(-c2nc(NC(=O)c3cccnc3)sc2-c2ccnc(C)c2)c1 [Example Compound 41, N-[4-(3-methylphenyl)-5-(2-methyl-4-pyridyl)-1,3-thiazol-2-yl]nicotinamide]"
12,207 to 208 °C,"CSc1ccc(-c2nc(-c3cccc(Cl)c3)c(-c3ccnc(NC(C)=O)c3)s2)cc1 [Example Compound 30-5, N-[4-[4-(3-chlorophenyl)-2-[4-(methylthio)phenyl]-1,3-thiazol-5-yl]-2-pyridyl]acetamide]"

# Tested on: TNF-α production in THP-1 cells
# Assay: Inhibitory activity of TNF-α production in LPS-stimulated THP-1 cells
# Assay type: cell-based
# Conditions: Homo sapiens, LPS 5 μg/mL, 4 hours, TNF-α by ELISA, read-out: IC50 (concentration inhibiting 50% of TNF-α production)
# Experimental: Measurement of Inhibitory Activity of TNF-α Production
# THP-1 cells cultured in a PRMI 1640 medium (Life Technologies, Inc., USA) containing 1% inactivated fetal bovine serum (Life Technologies, Inc.) and 10 mM HEPES (pH 7.5) were inoculated on a 96 well plate to give 1×10^5 cells/well, then, 1 μL of a sample compound dissolved in DMSO was added. After incubation for 1 hour at 37° C. in a CO2 incubator, LPS (Wako Pure Chemical Industries Ltd.) was added to give a final concentration of 5 μg/mL. After incubation for 4 hours at 37° C. in a CO2 incubator, the supernatant was obtained by centrifugal separation. The TNF-α concentration in the supernatant was measured by ELISA (R&D Systems, Quantikine Kit). The concentration (IC50 value) of a sample compound necessary for inhibiting 50% of TNF-α production was calculated by PRISM 2.01 (GraphPad Software).
row,IC50,Structure (SMILES)
1,120 nM,"CCc1nc(-c2cccc(Cl)c2)c(-c2ccnc(NC(C)=O)c2)s1 [Example 30-2, N-[4-[4-(3-chlorophenyl)-2-ethyl-1,3-thiazol-5-yl]-2-pyridyl]acetamide]"
2,21 nM,"CCC(=O)Nc1cc(-c2sc(-c3ccc(S(C)(=O)=O)cc3)nc2-c2cccc(Cl)c2)ccn1 [Example 58-7, N-[4-[4-(3-chlorophenyl)-2-(4-methylsulfonylphenyl)-1,3-thiazol-5-yl]-2-pyridyl]propionamide]"
3,55 nM,"CCc1nc(-c2cccc(Cl)c2)c(-c2ccnc(NC3CCCCC3)c2)s1 [Example 36-10, 4-[4-(3-chlorophenyl)-2-ethyl-1,3-thiazol-5-yl]-N-cyclohexyl-2-pyridylamine]"
